From US5545653A (priority 1995, dated 1996) come the findings set out here.

Common to all, as to assay type: cell-based
One test has as its system RhV-14 (Rhinovirus). Put plainly: microbe, parasite or virus in culture. The note with it: Enterovirus; 120 hours at 32° C.; read-out: IC50 (50 percent inhibition of plaque formation), RhV-14.
The subject of another test is PV-1 (poliovirus). Put plainly: microbe, parasite or virus in culture. The settings on record: Enterovirus C, 72 h, read-out: IC50 (50 percent inhibition of plaque formation), PV-1.
Another test has as its system CS-21C (Coxsackie virus). Put plainly: organism not typed. The note with it: 72 hours at 37° C.; read-out: IC50 (50 percent inhibition of plaque formation), CS-21C.

Converted amounts (≈) assume the structure as drawn.

As a reminder, the IC50 is the concentration at which inhibition is half-maximal. On to `CC(C)S(=O)(=O)n1c(N)nc2ccc(C(=O)c3cccc(F)c3)cc21` [Example 3], for which the IC50 with RhV-14 (Rhinovirus) was 2.14 µg/mL (≈ 5.92 µM).

In the case of `CC(C)S(=O)(=O)n1c(N)nc2ccc(C(=O)c3cc(F)cc(F)c3)cc21` [Example 5], the 50% inhibitory concentration (IC50) in the test on RhV-14 (Rhinovirus) was 3.9 µg/mL (≈ 10.3 µM).

Regarding `CC(C)S(=O)(=O)n1c(N)nc2ccc(C(=O)c3ccc(OC(F)(F)F)cc3)cc21` [Example 6], in the test on RhV-14 (Rhinovirus), the IC50 amounted to 0.329 µg/mL (≈ 0.77 µM).

In the case of `CC(C)S(=O)(=O)n1c(N)nc2ccc(C(=O)c3ccccc3F)cc21` [Example 11], the results for the half-maximal inhibitory concentration (IC50) in the test on PV-1 (poliovirus) and with CS-21C (Coxsackie virus) were 1.7 µg/mL (≈ 4.7 µM) and 0.44 µg/mL (≈ 1.22 µM), respectively.

Turning to `CC(C)S(=O)(=O)n1c(N)nc2ccc(C(=O)c3cc(F)ccc3F)cc21` [Example 20], the IC50 was found to be 1.32 µg/mL (≈ 3.48 µM) in the test on RhV-14 (Rhinovirus) and 0.19 µg/mL (≈ 0.501 µM) in the test on PV-1 (poliovirus).
